Like-named read-outs stand apart in the source and are kept apart here.
Key:
VSMCs = assay: XTT viability assay in VSMCs; type: cell-based, human; conditions: 72 h, full growth medium containing 10% FBS; read-out: EC50, VSMC viability
Method: (§1) FIG. 1A-1F illustrate molecular modeling and assay screening to compounds for dual targeting of PDGFRβ and RAF. (FIG. 1A) Molecular modeling of the amino-triazole based small molecules in PDGFRβ and RAF, respectively. […] A homology model of PDGFRβ was created with a structurally-related family member (VEGFR2, PDB 1y6b). […] To autophosphorylation, immunoblots were carried out with a phospho-tyrosine antibody. Membranes were stripped and reprobed for total PDGFRβ levels. […] (FIG. 1D) Structure activity relationships of the amino-triazole based small molecules comparing both PDGFRβ and B-RAF. […] Curves represent the average of 3 separate experiments, error bars represent ±SEM.
(§2) For XTT assays, cells were grown in 96-well plates overnight and all assays were conducted in growth medium will full serum and additives. […] Dose-response curves were plotted using GraphPad Prism software and EC50s were calculated using this program.

PDGFRB = PDGFRB (Homo sapiens (Human), UniProt P09619); assay: KINOMEscan competitive binding assay
Method: (§5) In vitro kinase screen and competitive binding assay. […] For the competitive binding assay, test compounds were screened at 10 μM against 70 diverse kinase targets for competitive binding using the KINOMEscan™ technology (Ambit Biosciences) (Karaman, et al. (2008) Nature biotechnology 26:127-132). 11-point Kd curves were determined for hits identified during the initial screen.

EGFR L861Q = EGFR L861Q (Homo sapiens (Human), UniProt P00533, L861Q); assay: In vitro kinase panel (SelectScreen); type: biochemical
Method: (§6) In vitro kinase screen and competitive binding assay. […] 11-point Kd curves were determined for hits identified during the initial screen.

CSF1R = CSF1R (Homo sapiens (Human), UniProt P07333); assay: In vitro kinase panel (SelectScreen); type: biochemical
Method: as §6

HUVECs = assay: XTT viability assay in HUVECs; type: cell-based, human; conditions: 72 h, read-out: EC50, endothelial cell viability
Method: as §1, §2

KIT = KIT (Homo sapiens (Human), UniProt P10721); assay: KINOMEscan competitive binding assay
Method: as §5

FLT3 = FLT3 (Homo sapiens (Human), UniProt P36888); assay: KINOMEscan competitive binding assay
Method: as §5

[1] = test system: Tg(fli1:EGFP) zebrafish embryos; assay: Zebrafish angiogenesis model; conditions: for blood vessel formation in zebrafish embryos: treated 20-48 hpf, 1 μM 6 or SU5416, up to 10 μM 3; for effect on established intersegmental vessels: compound added at 30 hpf, […] 6, 1 μM sorafenib; for viability of zebrafish embryos: treatment at 48-72 hpf
Method: Embryos were treated with 1 μM 6 or SU5416, or 10 μM 3 from 20 hours post fertilization (hpf) until 48 hpf. Representative 3D reconstructions of the blood vasculature are shown for both the head and tail regions of the embryo. Designations for the major vessels in the head and tail of the zebrafish embryo at 48 hpf are available in FIG. 8A. (FIG. 3B) Disruption of lumen formation in the zebrafish during late vessel maturation. Zebrafish treated with either 1 μM 6 or 10 μM 3 from 20-48 hpf were imaged at 35 and 48 hpf. […] Shown is 3D overlap reconstruction of the GFP expressing intersegmental vessels with TUNEL-positive nuclei at 48 hpf (shown in red). Representative phase contrast views as well as quantification of intersegmental vessel volumes from FIG. 3A and FIG. 3B can be found in FIG. 8B-D, respectively. (FIG. 3C) Time course of drug addition to zebrafish. […] At 30 hpf the zebrafish embryos established early vessels with evident lumens. […] All scale bars=100 μm.
Z-stacks from laser scanning confocal microscopy are shown depicting formation of the intersegmental vessels at 48 hpf. n=6 embryos/treatment. (FIG. 4B) HUVECs were co-cultured with hTERT-human hepatic stellate cells in a 3-D collagen matrix in the presence of complete EBM-2 medium to monitor pericyte-associated endothelial tube formation. […] The endothelial tubes were stained at 24 h by adding 2 μl FITC labeled Ulex europaeus lectin (Vector labs) per well. Images were acquired 48 h post seeding of the cells. One representative panel from 3 independent experiments is shown. Green—FITC lectin labeled endothelial cells, Red—DiIC(3) labeled stellate cells. […] Scale bar=200 μm. (FIG. 4C) Tube lengths were measured using Metamorph software for each tube for all 10 fields that were acquired. The % pericyte-covered tube length was calculated from the ratio of tube length sums for the tubes with and without pericyte contact. Error bars are reported as ±SEM of two wells per group. *indicates p<0.05 compared to DMSO group.
Zebrafish studies. Transgenic Tg(fli1:EGFP) zebrafish embryos were purchased from www.zfin.org and reported elsewhere (Lawson, et al. (2002) Dev Biol 248:307-318) and maintained according to (“Zebrafish—A Practical Approach”, Oxford University Press, 2002). Compounds in DMSO stock solutions were diluted directly into the water and vessels were imaged for GFP expression using a Nikon c1-si confocal microscope. Apoptosis was measured by TUNEL staining using the Apoptag in situ Red Fluorescence Kit (Chemicon) with a protocol described previously (Stanton, et al. (2006) The Journal of biological chemistry 281:28782-28793).

EGFR = EGFR (Homo sapiens (Human), UniProt P00533); assay: In vitro kinase panel (SelectScreen); type: biochemical
Method: as §6

FGFR1 = FGFR1 (Homo sapiens (Human), UniProt P11362); assay: In vitro kinase panel (SelectScreen); type: biochemical
From the text: (§3) In vitro kinase screen and competitive binding assay. Sorafenib as well as test compounds were submitted to Invitrogen and screened using their SelectScreen™ Profiling Service.

PKC epsilon = PKC epsilon (Homo sapiens (Human), UniProt Q02156); assay: In vitro kinase panel (SelectScreen); type: biochemical
From the text: as §3

[2] = molecular target: B-RAF/C-RAF heterodimerization (Homo sapiens (Human), UniProt P15056); assay: B-RAF/C-RAF heterodimerization in HUVECs (immunoprecipitation/Western); type: cell-based; conditions: ECs stimulated with bFGF or VEGF
SK-MEL-28 = assay: Tumor cell viability; type: cell-based; conditions: Melanoma SK-MEL-28, B-RAF V600E
Method: (§4) For XTT assays, cells were grown in 96-well plates overnight and all assays were conducted in growth medium will full serum and additives. Compounds were serially diluted in DMSO and then further diluted into the medium to give the appropriate concentration while minimizing precipitation associated with serial diluting in medium alone Inhibitors were added for 72 h and cell viability was quantified at 450 nm after the addition of 1 mg/ml XTT solution (Sigma-Aldrich) in phenol-red free DMEM medium containing […] (Sigma-Aldrich). Dose-response curves were plotted using GraphPad Prism software and EC50s were calculated using this program.

CHL-1 = assay: Tumor cell viability; type: cell-based; conditions: Melanoma CHL-1
Method: as §4

SK-MEL-2 = assay: Tumor cell viability; type: cell-based; conditions: Melanoma SK-MEL-2, N-Ras
Method: as §4

R40P = assay: Tumor cell viability; type: cell-based; conditions: Pancreatic (mouse spontaneous model) R40P, K-Ras
Method: as §4

HT29 = assay: Tumor cell viability; type: cell-based; conditions: Colon HT29, B-RAF V600E
Method: as §4

MCF7 = assay: Tumor cell viability; type: cell-based; conditions: Breast MCF7, PI3K
Method: as §4

[3] = HUVECs, full growth medium containing 10% FBS

Sequence of PKC epsilon (Q02156 whole entry): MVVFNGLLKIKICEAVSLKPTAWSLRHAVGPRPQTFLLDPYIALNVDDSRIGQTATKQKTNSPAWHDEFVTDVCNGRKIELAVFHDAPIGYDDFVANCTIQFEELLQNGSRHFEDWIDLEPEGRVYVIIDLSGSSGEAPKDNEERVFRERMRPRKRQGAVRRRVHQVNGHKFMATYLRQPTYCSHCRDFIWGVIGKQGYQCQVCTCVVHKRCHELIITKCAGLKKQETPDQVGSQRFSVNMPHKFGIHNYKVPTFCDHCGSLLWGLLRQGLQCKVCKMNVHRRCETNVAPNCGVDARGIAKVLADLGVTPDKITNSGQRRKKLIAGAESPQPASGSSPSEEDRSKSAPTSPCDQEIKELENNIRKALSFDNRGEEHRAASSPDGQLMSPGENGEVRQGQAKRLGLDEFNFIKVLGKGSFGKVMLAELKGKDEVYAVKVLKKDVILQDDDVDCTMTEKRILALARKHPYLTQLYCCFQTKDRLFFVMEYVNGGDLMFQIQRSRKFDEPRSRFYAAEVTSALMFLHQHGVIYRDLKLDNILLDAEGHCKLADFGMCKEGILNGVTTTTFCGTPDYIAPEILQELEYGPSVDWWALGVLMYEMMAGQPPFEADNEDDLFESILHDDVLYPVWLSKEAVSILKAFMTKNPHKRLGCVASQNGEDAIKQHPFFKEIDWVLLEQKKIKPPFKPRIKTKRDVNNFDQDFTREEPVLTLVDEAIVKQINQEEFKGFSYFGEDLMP
Sequence of FGFR1 (P11362 22-822): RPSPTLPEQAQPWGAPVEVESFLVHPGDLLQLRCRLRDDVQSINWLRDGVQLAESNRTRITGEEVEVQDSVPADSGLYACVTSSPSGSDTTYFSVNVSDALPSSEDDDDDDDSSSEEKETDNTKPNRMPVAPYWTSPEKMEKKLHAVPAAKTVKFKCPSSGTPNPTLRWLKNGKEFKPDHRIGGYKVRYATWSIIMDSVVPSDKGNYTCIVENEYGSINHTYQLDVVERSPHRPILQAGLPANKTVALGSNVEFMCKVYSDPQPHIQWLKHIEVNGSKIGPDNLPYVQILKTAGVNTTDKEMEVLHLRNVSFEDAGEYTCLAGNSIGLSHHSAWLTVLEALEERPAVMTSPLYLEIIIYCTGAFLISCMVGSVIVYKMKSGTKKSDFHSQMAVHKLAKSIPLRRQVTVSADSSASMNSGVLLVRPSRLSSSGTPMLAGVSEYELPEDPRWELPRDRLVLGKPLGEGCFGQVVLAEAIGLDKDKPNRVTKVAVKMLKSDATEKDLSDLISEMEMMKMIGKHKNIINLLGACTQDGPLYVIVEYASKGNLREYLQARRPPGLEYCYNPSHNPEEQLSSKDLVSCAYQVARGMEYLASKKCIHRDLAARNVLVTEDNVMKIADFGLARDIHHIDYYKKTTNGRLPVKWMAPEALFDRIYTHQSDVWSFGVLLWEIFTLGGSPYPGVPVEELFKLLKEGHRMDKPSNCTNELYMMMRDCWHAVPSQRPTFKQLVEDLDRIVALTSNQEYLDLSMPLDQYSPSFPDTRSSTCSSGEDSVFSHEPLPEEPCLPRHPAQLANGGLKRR
Sequence of EGFR (P00533 25-1210): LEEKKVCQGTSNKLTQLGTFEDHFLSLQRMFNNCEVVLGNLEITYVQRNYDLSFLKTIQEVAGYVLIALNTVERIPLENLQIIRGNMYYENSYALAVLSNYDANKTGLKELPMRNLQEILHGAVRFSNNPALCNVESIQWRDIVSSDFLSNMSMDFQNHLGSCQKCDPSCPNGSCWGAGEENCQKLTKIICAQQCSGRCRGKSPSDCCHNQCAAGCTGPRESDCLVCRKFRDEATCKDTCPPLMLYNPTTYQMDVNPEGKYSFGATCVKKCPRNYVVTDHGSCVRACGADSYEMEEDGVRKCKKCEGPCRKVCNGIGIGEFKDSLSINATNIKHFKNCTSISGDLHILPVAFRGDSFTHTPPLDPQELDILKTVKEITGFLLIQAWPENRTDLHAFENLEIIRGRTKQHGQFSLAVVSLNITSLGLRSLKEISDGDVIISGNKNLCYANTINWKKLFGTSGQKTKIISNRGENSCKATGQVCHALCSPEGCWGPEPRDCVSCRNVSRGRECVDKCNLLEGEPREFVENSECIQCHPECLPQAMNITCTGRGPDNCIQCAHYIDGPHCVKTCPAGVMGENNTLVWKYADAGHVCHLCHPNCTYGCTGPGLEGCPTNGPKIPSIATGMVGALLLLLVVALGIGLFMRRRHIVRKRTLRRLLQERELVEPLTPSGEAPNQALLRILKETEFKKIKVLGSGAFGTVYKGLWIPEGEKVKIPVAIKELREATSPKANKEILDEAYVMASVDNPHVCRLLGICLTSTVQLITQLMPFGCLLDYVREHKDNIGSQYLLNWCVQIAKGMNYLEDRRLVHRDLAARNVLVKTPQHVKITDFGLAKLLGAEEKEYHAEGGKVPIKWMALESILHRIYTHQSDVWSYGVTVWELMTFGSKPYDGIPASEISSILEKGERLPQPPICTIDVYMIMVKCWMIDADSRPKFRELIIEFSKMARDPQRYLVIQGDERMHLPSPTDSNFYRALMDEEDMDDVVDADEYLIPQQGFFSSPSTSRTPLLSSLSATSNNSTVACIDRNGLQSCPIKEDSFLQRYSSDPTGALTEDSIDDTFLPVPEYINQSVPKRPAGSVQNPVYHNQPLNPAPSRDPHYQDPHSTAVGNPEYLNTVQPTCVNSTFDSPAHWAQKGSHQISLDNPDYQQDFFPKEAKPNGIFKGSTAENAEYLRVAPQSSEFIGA
Sequence of CSF1R (P07333 20-972): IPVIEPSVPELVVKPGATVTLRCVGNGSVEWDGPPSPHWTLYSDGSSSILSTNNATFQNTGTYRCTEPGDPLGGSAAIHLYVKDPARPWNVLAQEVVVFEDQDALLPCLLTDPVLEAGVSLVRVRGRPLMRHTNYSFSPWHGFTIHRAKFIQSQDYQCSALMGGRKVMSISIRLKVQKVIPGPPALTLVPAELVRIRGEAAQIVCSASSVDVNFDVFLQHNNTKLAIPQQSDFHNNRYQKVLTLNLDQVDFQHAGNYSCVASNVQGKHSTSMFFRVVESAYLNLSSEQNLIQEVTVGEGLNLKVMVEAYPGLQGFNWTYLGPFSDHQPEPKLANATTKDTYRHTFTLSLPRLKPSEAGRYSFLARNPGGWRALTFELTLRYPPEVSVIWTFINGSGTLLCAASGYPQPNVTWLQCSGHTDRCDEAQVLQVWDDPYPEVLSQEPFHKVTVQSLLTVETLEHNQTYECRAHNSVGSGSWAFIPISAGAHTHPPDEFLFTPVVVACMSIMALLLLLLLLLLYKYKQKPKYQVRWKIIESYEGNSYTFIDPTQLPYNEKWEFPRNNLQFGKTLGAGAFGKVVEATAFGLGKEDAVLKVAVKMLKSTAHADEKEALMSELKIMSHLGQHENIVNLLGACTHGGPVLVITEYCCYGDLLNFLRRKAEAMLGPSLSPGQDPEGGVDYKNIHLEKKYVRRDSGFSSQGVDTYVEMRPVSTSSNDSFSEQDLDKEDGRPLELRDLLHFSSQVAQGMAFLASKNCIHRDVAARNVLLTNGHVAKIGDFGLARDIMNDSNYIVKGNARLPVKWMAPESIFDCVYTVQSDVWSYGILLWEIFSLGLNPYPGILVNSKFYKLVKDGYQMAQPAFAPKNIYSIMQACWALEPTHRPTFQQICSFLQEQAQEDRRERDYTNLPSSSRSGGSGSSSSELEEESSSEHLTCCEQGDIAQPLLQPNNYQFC
Sequence of KIT (P10721 26-976): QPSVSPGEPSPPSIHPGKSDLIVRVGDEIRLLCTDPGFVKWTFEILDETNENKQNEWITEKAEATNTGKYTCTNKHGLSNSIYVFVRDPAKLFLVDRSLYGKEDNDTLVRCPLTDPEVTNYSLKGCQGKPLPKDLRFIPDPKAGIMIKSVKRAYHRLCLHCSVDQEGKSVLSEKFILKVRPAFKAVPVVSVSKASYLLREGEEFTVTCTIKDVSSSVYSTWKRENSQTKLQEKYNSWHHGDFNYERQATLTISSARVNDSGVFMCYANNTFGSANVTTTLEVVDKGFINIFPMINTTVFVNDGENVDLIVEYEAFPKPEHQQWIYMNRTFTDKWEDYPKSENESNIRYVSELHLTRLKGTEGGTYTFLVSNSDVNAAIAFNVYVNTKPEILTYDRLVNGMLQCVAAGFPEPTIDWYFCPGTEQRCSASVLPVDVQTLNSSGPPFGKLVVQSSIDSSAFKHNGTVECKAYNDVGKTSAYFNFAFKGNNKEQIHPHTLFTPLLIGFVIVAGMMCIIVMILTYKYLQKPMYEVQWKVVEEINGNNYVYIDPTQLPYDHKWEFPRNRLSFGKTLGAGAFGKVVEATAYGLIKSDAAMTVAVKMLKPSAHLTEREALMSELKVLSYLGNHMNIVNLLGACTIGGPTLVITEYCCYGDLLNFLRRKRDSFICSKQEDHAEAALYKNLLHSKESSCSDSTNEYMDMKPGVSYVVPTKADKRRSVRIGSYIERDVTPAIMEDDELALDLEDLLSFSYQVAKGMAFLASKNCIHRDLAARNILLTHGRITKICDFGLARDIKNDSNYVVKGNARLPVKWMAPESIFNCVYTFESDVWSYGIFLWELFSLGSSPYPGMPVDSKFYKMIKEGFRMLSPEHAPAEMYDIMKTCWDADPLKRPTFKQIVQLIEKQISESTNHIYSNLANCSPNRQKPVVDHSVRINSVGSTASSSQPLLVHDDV

Row | SMILES | EC50 (VSMCs) | % Inhibition at 10 μM (EGFR L861Q) | % Inhibition at 10 μM (CSF1R) | EC50 (HUVECs; [3]) | blood vessel formation in zebrafish embryos [1] | % Inhibition at 10 μM (EGFR) | % Inhibition at 10 μM (FGFR1) | % Inhibition at 10 μM (PKC epsilon) | B-RAF/C-RAF heterodimer formation [2] | effect on established intersegmental vessels [1] | viability of zebrafish embryos [1] | EC50 (R40P) | further results
1 | Nc1cc(Oc2ccc(-c3nnc(Nc4cccc(C(F)(F)F)c4)[nH]3)cc2)ncn1 [Compound 3] | 15000 nM | −1% | 79% | 18000 nM | had no effect | −2% | 9% | −3% | had no effect |  |  |  | Kd (PDGFRB; PDGFRβ): 40 nM; Kd (KIT): 3.7 nM; Kd (FLT3): 1.4 nM
2 | CSc1nc(N)cc(Oc2ccc(-c3nnc(Nc4cccc(C(F)(F)F)c4)[nH]3)cc2)n1 [Compound 6] | 590 nM | −4% | 23% | 540 nM | failed to form mature intersegmental vessels | −3% | 6% | −1% | completely inhibited | did not suppress the vascular growth and patterning | all viable | 660 nM | % Control (PDGFRB; 10 uM, PDGFRB): 0.5%; % Control (KIT; 10 uM): 0%; % Control (FLT3; 10 uM): 2.8%; EC50 (SK-MEL-28): 400 nM; EC50 (CHL-1): 100 nM; EC50 (SK-MEL-2): 140 nM; EC50 (HT29): 620 nM; EC50 (MCF7): 680 nM
3 | CNC(=O)c1cc(Oc2ccc(NC(=O)Nc3ccc(Cl)c(C(F)(F)F)c3)cc2)ccn1 [sorafenib, reference compound] |  |  |  |  |  |  |  |  |  | disrupted mature intersegmental blood vessels | induced death in all animals tested | 9430 nM | EC50 (HUVECs; Homo sapiens, HUVEC): 13200 nM; EC50 (SK-MEL-28; Homo sapiens): 17600 nM; EC50 (CHL-1; Homo sapiens): 6100 nM; EC50 (SK-MEL-2; Homo sapiens): 14300 nM; EC50 (HT29; Homo sapiens, HT-29): > 20000 nM; EC50 (MCF7; Homo sapiens): > 20000 nM; inhibition at 10 µM (FGFR1): 44%; inhibition at 10 µM (PKC epsilon): -2%

— patent US9260417B2, “Therapeutic methods and compositions involving allosteric kinase inhibition” (AMITECH THERAPEUTIC SOLUTIONS, INC., priority 2010, dated 2016)
